# Data: patent publication US4324796A, “Substituted oxiranecarboxylic acids, their use and medicaments containing them” (BYK Gulden Lomberg Chemische Fabrik Gesellschaft mit …, priority 1979, dated 1982)
# Like-named read-outs stand apart in the source and are kept apart here.
# Key:
# [1] = test system: blood glucose concentration; experiment: Blood glucose lowering after single oral administration, fasting metabolically healthy guinea pigs; assay type: in vivo, guinea pigs (young cross-bred male); conditions: Cavia porcellus
# [2] = Acute toxicity, guinea pig, peroral; conditions: in vivo, po; Table III; guinea pig p.o.; preliminary results
# Text: Column C provides data relating to acute toxicity (LD50; guinea pig, peroral administration).
# [3] = test system: blood glucose concentration; experiment: Blood glucose lowering after single oral administration, fasting metabolically healthy rats; conditions: for ED50: Rattus norvegicus, po, 5 h; for ED50 (15%): dose which effects a lowering of the blood glucose concentration by 15% in 50% of the animals: Table II, rats p.o., α-methylenecarboxylic acid intermediates;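 on all read-outs here: young male Sprague-Dawley rats fasted 18 h, blood glucose sampled before dosing and at 3 and 5 h afterwards, compared with a solvent-treated control group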
# [4] = in vivo; conditions: mouse, po, Table I, mice p.o., 7 days observation, read-out: LD50 (acute toxicity)
# Experimental: 2. Determination of the toxicity
# Various doses of the substances (volume: 10 ml/kg) are administered orally by means of a stomach tube. The observation time is 7 days.
# [5] = test system: blood glucose concentration; conditions: rat, in vivo, po, 300 min
# [6] = test system: blood glucose concentration; conditions: guinea pig, in vivo, po; cited from earlier work
# [7] = test system: guinea pig; conditions: Table III; guinea pig p.o.; cited according to Proske et al. 1962; cited from earlier work
# [8] = 5 h, read-out: ED50 (15%): dose which effects a lowering of the blood glucose concentration by at least 15% in 50% of the animals
# [9] = 5 h, read-out: ED50 (25%): dose which effects a lowering of the blood glucose concentration by at least 25% in 50% of the animals
# [10] = read-out: ED50 (15%): dose which effects a lowering of the blood glucose concentration by at least 15% in 50% of the animals
# [11] = read-out: ED50 (25%): dose which effects a lowering of the blood glucose concentration by at least 25% in 50% of the animals
# [12] = Table III B, guinea pig p.o., single dose, 5 hours, vs control group, read-out: ED50 (15%): dose which effects a lowering of the blood glucose concentration by at least 15% in 50% of the animals
compound,measurement,setting,value
O=C([O-])C1(CCCCCc2ccc(Cl)cc2)CO1.[Na+] (stereo not drawn),ED50,[1]; [8],3 mg/kg
same,ED50,[1]; [9],8 mg/kg
same,LD50,[2],300 to 400 mg/kg
same,ED50,[3]; [10],5 mg/kg
same,ED50,[3]; [11],16 mg/kg
2-Benzyloxirane-2-carboxylic acid ethyl ester [Example 15],ED50 (15%): dose which effects a lowering of the blood glucose concentration by 15% in 50% of the animals,[3],80 mg/kg
O=C([O-])C1(CCCc2ccc(Cl)cc2)CO1.[Na+] (stereo not drawn),ED50,[1]; [8],12 mg/kg
same,ED50,[1]; [9],26 mg/kg
same,LD50,[2],500 to 600 mg/kg
same,ED50,[3]; [10],20 mg/kg
same,ED50,[3]; [11],41 mg/kg
"CCOC(=O)C1(CCCCCc2ccccc2)CO1 (stereo not drawn) [Serial No. 7, 2-(5-Phenylpentyl)oxirane-2-carboxylic acid ethyl ester]",ED50,[1]; [12],11 mg/kg
same,LD50,[4],230 mg/kg
same,ED50,[5],21 mg/kg
same,ED50,[3]; [10],10 mg/kg
"[H]/N=C(/N)N/C(=N/[H])NCCc1ccccc1 [Serial No. 2, Phenformin, reference compound]",ED50,[6],20 to 25 mg/kg
same,ED50,[3]; [10],> 150 mg/kg
same,ED50,[3]; [11],> 343 mg/kg
"CCCCNC(=N)NC(=N)N [Serial No. 1, Buformin, reference compound]",ED50 (25%): dose which effects a lowering of the blood glucose concentration by 25% in 50% of the animals,[6],40 to 50 mg/kg
same,LD50 (acute toxicity),[7],58 mg/kg
same,ED50,[3]; [10],> 100 mg/kg
same,ED50,[3]; [11],194 mg/kg
O=C([O-])C1(CCCc2cccc(C(F)(F)F)c2)CO1.[Na+] (stereo not drawn),ED50,[1]; [8],6 mg/kg
same,ED50,[1]; [9],11 mg/kg
same,LD50,[2],300 to 400 mg/kg
same,ED50,[3]; [10],14 mg/kg
same,ED50,[3]; [11],23 mg/kg
O=C([O-])C1(CCCCCc2ccccc2)CO1.[Na+] (stereo not drawn),ED50,[1]; [8],3 mg/kg
same,ED50,[1]; [9],7 mg/kg
same,LD50,[2],500 to 600 mg/kg
same,ED50,[3]; [10],2 mg/kg
same,ED50,[3]; [11],12 mg/kg
2-(3-Phenylpropyl)oxirane-2-carboxylic acid methyl ester [Example 13],ED50 (15%): dose which effects a lowering of the blood glucose concentration by 15% in 50% of the animals,[3],252 mg/kg
Sodium 2-(3-phenylpropyl)oxirane-2-carboxylate [Example 14],ED50 (15%): dose which effects a lowering of the blood glucose concentration by 15% in 50% of the animals,[3],> 253 mg/kg
"CCOC(=O)C1(CCCCc2ccccc2)CO1 (stereo not drawn) [Serial No. 11, 2-(4-Phenylbutyl)oxirane-2-carboxylic acid ethyl ester]",ED50,[3]; [10],67 mg/kg
"CCOC(=O)C1(CCCc2ccc(Cl)cc2)CO1 (stereo not drawn) [Serial No. 3, 2-[3-(4-Chlorophenyl)propyl]oxirane-2-carboxylic acid ethyl ester]",ED50,[1]; [12],11 mg/kg
same,LD50,[4],730 mg/kg
same,ED50,[3]; [10],40 mg/kg
same,ED50,[3]; [11],54 mg/kg
"CCOC(=O)C1(CCCc2cccc(C(F)(F)F)c2)CO1 (stereo not drawn) [Serial No. 5, 2-[3-(3-Trifluoromethylphenyl)propyl]oxirane-2-carboxylic acid ethyl ester]",ED50,[1]; [12],3 mg/kg
same,LD50,[4],~300 mg/kg
same,ED50,[3]; [10],6 mg/kg
same,ED50,[3]; [11],24 mg/kg
"CCOC(=O)C1(CCCCCc2ccc(Cl)cc2)CO1 (stereo not drawn) [Serial No. 9, 2-[5-(4-Chlorophenyl)pentyl]oxirane-2-carboxylic acid ethyl ester]",ED50,[1]; [12],5 mg/kg
same,LD50,[4],275 mg/kg
same,ED50,[3]; [10],3 mg/kg
same,ED50,[3]; [11],24 mg/kg
"CCOC(=O)C1(CCCc2cccc(Cl)c2)CO1 (stereo not drawn) [Serial No. 12, 2-[3-(3-Chlorophenyl)propyl]oxirane-2-carboxylic acid ethyl ester]",ED50,[3]; [10],59 mg/kg
